Assay results reported in patent US20230113037A1 (Bayer Aktiengesellschaft, priority 2019, published 2023).
pIC50: −log10 of the molar value. Where two headings read alike, the source gives them in different places.

How the values were obtained:
AHR [1] = target: T1, AHR (Homo sapiens, UniProt P35869); assay: In vitro assay 1: antagonism in human cell line (AHR transactivation, firefly luciferase reporter, kynurenic acid prestimulated); format: cell-based; conditions: AHR Antagonism Human IC50 [M]
T1 construct: U87 MG glioblastoma cells (ATCC #HTB-14) endogenously expressing AHR; endogenous in cells; host or cells: U87 MG glioblastoma cells (ATCC #HTB-14)
T1 sequence (P35869 11-848): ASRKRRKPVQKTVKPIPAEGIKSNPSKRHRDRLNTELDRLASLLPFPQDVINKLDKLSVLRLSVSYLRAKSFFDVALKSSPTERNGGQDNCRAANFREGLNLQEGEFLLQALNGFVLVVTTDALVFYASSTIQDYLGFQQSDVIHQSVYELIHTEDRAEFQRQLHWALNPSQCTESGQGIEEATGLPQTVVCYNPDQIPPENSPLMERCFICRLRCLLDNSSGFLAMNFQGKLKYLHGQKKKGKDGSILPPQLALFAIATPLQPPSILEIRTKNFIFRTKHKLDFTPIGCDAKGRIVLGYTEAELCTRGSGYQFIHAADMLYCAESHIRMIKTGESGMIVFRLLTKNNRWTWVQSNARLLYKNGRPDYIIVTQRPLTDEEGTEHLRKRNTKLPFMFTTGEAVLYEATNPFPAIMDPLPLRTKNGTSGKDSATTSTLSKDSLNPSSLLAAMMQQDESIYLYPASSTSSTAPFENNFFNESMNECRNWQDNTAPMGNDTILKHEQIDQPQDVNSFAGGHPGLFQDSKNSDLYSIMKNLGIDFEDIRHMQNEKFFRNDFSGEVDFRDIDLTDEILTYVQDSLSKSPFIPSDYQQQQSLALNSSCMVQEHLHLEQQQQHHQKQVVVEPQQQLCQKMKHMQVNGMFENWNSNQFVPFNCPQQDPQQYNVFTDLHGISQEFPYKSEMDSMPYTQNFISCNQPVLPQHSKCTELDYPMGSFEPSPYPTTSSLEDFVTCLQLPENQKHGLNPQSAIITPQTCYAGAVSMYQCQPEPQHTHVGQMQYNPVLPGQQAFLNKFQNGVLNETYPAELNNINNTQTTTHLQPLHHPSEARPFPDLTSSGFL
In short: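 Antagonism is measured against kynurenic acid prestimulation in U87 MG glioblastoma cells carrying stable DRE-luciferase and Renilla reporters. Positive inhibition control: 150 μM kynurenic acid with 5 μM staurosporine. Values are normalized to controls; repeats are averaged or given as medians.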

AHR [2] = target: T2, AHR (Mus musculus, UniProt P30561); assay: In vitro assay 3: antagonism in mouse cell line (AHR transactivation, firefly luciferase reporter, kynurenic acid prestimulated); format: cell-based
T2 sequence (P30561 1-848 P471L/N533S/M589L): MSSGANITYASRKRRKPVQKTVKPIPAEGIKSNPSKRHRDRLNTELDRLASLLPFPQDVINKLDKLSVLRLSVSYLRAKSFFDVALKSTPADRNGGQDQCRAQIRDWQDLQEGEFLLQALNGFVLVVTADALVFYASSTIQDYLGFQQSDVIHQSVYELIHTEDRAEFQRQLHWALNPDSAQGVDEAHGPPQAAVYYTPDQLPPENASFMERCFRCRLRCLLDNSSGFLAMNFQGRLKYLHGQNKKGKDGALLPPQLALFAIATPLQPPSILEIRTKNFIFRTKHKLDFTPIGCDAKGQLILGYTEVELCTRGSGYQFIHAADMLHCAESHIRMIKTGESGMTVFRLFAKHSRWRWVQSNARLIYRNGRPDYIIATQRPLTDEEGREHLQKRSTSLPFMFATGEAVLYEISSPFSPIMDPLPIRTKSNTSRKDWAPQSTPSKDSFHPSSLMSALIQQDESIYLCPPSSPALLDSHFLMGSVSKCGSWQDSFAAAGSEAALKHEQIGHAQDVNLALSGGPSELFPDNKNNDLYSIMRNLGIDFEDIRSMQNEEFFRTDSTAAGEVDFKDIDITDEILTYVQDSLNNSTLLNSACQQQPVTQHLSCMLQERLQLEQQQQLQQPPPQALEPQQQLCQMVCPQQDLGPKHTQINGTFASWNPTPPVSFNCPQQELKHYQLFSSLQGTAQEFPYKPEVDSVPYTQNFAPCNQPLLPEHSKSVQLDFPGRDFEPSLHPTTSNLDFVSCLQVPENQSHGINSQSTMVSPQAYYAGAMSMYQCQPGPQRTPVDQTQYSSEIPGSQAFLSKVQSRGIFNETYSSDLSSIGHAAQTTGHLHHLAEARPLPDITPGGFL
In short: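 Kynurenic acid-prestimulated mouse reporter cells; stable AHR-inducible firefly luc construct with DRE sites in promoter. No-agonist wells = positive inhibition ctrl. Luminescence normalized to pos/neg ctrls; n>1 reported as mean or median.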

[3] = mouse Hepa 1c1c7 cells, 200 μM kynurenic acid, 20 hours, read-out: AHR Antagonism Mouse IC50
[4] = Hepa 1c1c7 cells, 200 μM kynurenic acid, 20 hours, firefly luciferase reporter, read-out: AHR Antagonism Mouse IC50

Compound	IC50 (AHR [1])	pIC50 (AHR [2]; [3])	IC50 (AHR [1]; firefly luciferase reporter)	pIC50 (AHR [2]; [4])	pIC50 (AHR [2]; read-out: AHR Antagonism Mouse IC50, mouse Hepa 1c1c7 cells, 200 μM kynurenic acid, 20 hours)
O=C1NCCCC[C@H]1Nc1nc2ccccc2c2nc(-c3cnn(CC4CCC4)c3)nn12 [Example 597, (3R)-3-({2-[1-(cyclobutylmethyl)-1H-pyrazol-4-yl][1,2,4]triazolo[1,5-c]quinazolin-5-yl}amino)azepan-2-one]	1.16e-08 M	8.12	–	–	–
COc1ccc(-c2nc3c4cc(C(C)C)ccc4nc(N[C@@H]4CCCCNC4=O)n3n2)cc1 [Example 392, (3R)-3-{[2-(4-Methoxyphenyl)-9-(propan-2-yl)[1,2,4]triazolo[1,5-c]quinazolin-5-yl]amino}azepan-2-one]	2.38e-07 M	7.50	–	–	–
O=C1NCC[C@H]1Nc1nc2ccccc2c2nc(-c3ccsc3)nn12 [Example 342, (3R)-3-{[2-(thiophen-3-yl)[1,2,4]triazolo[1,5-c]quinazolin-5-yl]amino}pyrrolidin-2-one]	2.21e-07 M	6.76	–	–	–
O=C1NCCC[C@H]1Nc1nc2ccccc2c2nc(-c3cccc(OC(F)(F)F)c3)nn12 [Example 311, (3R)-3-({2-[3-(trifluoromethoxy)phenyl][1,2,4]triazolo[1,5-c]quinazolin-5-yl}amino)piperidin-2-one]	1.36e-07 M	6.95	–	–	–
COc1cccc(-c2nc3c4ccc(F)cc4nc(N[C@H]4CCCNC4=O)n3n2)c1 [Example 151, (3S)-3-{[8-fluoro-2-(3-methoxyphenyl)[1,2,4]triazolo[1,5-c]quinazolin-5-yl]amino}piperidin-2-one]	2.36e-06 M	6.46	–	–	–
CC(C)n1cc(-c2nc3c4cccc(F)c4nc(N[C@@H]4CCCCNC4=O)n3n2)cn1 [Example 836]	–	–	4.19e-09 M	8.31	–
COc1ccc(-c2nc3c4cccc(Br)c4nc(N[C@H](C)C(=O)N4CC5(CN(C)C5)C4)n3n2)cc1 [Example 918, (2R)-2-{[7-bromo-2-(4-methoxyphenyl)[1,2,4]triazolo[1,5-c]quinazolin-5-yl]amino}-1-(6-methyl-2,6-diazaspiro[3.3]heptan-2-yl)propan-1-one]	–	–	3.07e-08 M	7.50	–
C[C@@H](Nc1nc2c(Br)cccc2c2nc(-c3cnn(C)c3)nn12)C(=O)N1C[C@H]2C[C@@H]1CN2C [Example 902]	–	–	8e-08 M	7.02	–
O=C1NCCNC[C@H]1Nc1nc2ccccc2c2nc(-c3cn[nH]c3)nn12 [Example 264, (6R)-6-{[2-(1H-pyrazol-4-yl)[1,2,4]triazolo[1,5-c]quinazolin-5-yl]amino}-1,4-diazepan-5-one]	> 2e-05 M	< 4.70	–	–	–
COc1ccc(-c2nc3c4cccc(F)c4nc(N[C@@H]4CCCCNC4=O)n3n2)cc1 [Example 138, (3R)-3-{[7-fluoro-2-(4-methoxyphenyl)[1,2,4]triazolo[1,5-c]quinazolin-5-yl]amino}azepan-2-one]	7.41e-10 M	8.84	–	–	–
O=C1NCCCC[C@H]1Nc1nc2ccccc2c2nc(-c3nc(CCO)no3)nn12 [Example 305, (3R)-3-({2-[3-(2-Hydroxyethyl)-1,2,4-oxadiazol-5-yl][1,2,4]triazolo[1,5-c]quinazolin-5-yl}amino)azepan-2-one]	2.97e-07 M	–	–	–	6.75
COc1ccc(-c2nc3c4cc(Cl)ccc4nc(N[C@@H]4CNCCNC4=O)n3n2)cc1 [Example 278, (6R)-6-{[9-chloro-2-(4-methoxyphenyl)[1,2,4]triazolo[1,5-c]quinazolin-5-yl]amino}-1,4-diazepan-5-one]	3.72e-07 M	7.29	–	–	–
O=C1NCCCC[C@H]1Nc1nc2c(C(F)(F)F)cccc2c2nc(-c3cnn(C4CC4)c3)nn12 [Example 676, (3R)-3-{[2-(1-cyclopropyl-1H-pyrazol-4-yl)-7-(trifluoromethyl)[1,2,4]triazolo[1,5-c]quinazolin-5-yl]amino}azepan-2-one]	6.18e-10 M	8.71	–	–	–
Cc1cncc(-c2nc3c4ccccc4nc(N[C@@H]4CCCCNC4=O)n3n2)c1 [Example 636, (3R)-3-{[2-(5-methylpyridin-3-yl)[1,2,4]triazolo[1,5-c]quinazolin-5-yl]amino}azepan-2-one]	2.32e-08 M	8.22	–	–	–
CNCCNC(=O)[C@@H](C)Nc1nc2ccccc2c2nc(-c3ccc(OC)cc3)nn12 [Example 990, N^2-[2-(4-methoxyphenyl)[1,2,4]triazolo[1,5-c]quinazolin-5-yl]-N-[2-(methylamino)ethyl]-D-alaninamide-hydroxy chloride (1/1)]	–	–	4.29e-08 M	7.13	–
COc1ccc(-c2nc3c4ccccc4nc(N[C@@H]4CCCCNC4=O)n3n2)cc1C [Example 627, (3R)-3-{[2-(4-methoxy-3-methylphenyl)[1,2,4]triazolo[1,5-c]quinazolin-5-yl]amino}azepan-2-one]	6.68e-10 M	9.49	–	–	–
O=C1NCCCC[C@H]1Nc1nc2ccccc2c2nc(-c3nc(C4CC4)no3)nn12 [Example 135, (3R)-3-{[2-(3-cyclopropyl-1,2,4-oxadiazol-5-yl)[1,2,4]triazolo[1,5-c]quinazolin-5-yl]amino}azepan-2-one]	2.77e-08 M	7.69	–	–	–
N#Cc1cccc2c1nc(N[C@@H]1CCCCNC1=O)n1nc(-c3cnn(C4CC4)c3)nc21 [Example 761, 2-(1-cyclopropyl-1H-pyrazol-4-yl)-5-{[(3R)-2-oxoazepan-3-yl]amino}[1,2,4]triazolo[1,5-c]quinazoline-7-carbonitrile]	3.11e-09 M	8.00	–	–	–
CN1CC[C@@H](Nc2nc3ccccc3c3nc(-c4ccsc4)nn23)C1=O [Example 345, (3R)-1-methyl-3-{[2-(thiophen-3-yl)[1,2,4]triazolo[1,5-c]quinazolin-5-yl]amino}pyrrolidin-2-one]	1.24e-07 M	7.57	–	–	–
COc1cccc(-c2nc3c4ccccc4nc(N[C@H](CC(C)C)C(N)=O)n3n2)c1 [Example 82, N^2-[2-(3-methoxyphenyl)[1,2,4]triazolo[1,5-c]quinazolin-5-yl]-D-leucinamide]	8.87e-09 M	7.89	–	–	–
CCSc1cccc2c1nc(N[C@@H]1CCCCNC1=O)n1nc(-c3cnn(C)c3)nc21 [Example 769, (3R)-3-{[7-(ethylsulfanyl)-2-(1-methyl-1H-pyrazol-4-yl)[1,2,4]triazolo[1,5-c]quinazolin-5-yl]amino}azepan-2-one]	2.1e-08 M	6.82	–	–	–
NC(=O)[C@@H](CO)Nc1nc2ccccc2c2nc(-c3ccccc3OC(F)(F)F)nn12 [Example 468, N^2-{2-[2-(trifluoromethoxy)phenyl][1,2,4]triazolo[1,5-c]quinazolin-5-yl}-D-serinamide]	6.73e-08 M	7.37	–	–	–
O=C1NCCCC[C@H]1Nc1nc2c(Br)cccc2c2nc(-c3cn[nH]c3)nn12 [Example 579, (3R)-3-{[7-bromo-2-(1H-pyrazol-4-yl)[1,2,4]triazolo[1,5-c]quinazolin-5-yl]amino}azepan-2-one]	1.13e-08 M	7.17	–	–	–
